Results from paper PMC11820896, “New Compounds with Enhanced Biological Activity Through the Strategic Introduction of Silylated Groups into Hydroxystearic Acids” (Molecules, 2025).

Columns and labels:
Assay type in all cases: cell-based, human
HT29 cells [1] = assay: ROS assay (DClFDA staining); details: 24 h treatment
Experimental: ROS were detected by DClFDA staining. This probe is not fluorescent and is permeable to alive cells, where the acetometoxyesther is cleaved by the […] intracellular estherases. This product is made fluorescent by the concomitant action of ROS, which peroxidize the molecule. The intensity of the fluorescence is, therefore, proportional to the production of intracellular ROS. HT29 cells were grown on a 96-well black plate, treated for 24 h with 4, washed in Hanks’ buffer, stained with 2 µM DClFDA, and incubated at 37 °C in the dark for 30 min. Negative controls were treated in the same way, but DClFDA was not added to these samples. The cells were washed in fresh Hanks’ buffer and resuspended in Hanks’ buffer containing Hoechst 33342 1 µg/mL to stain cell nuclei, to evaluate the cell density in the wells. The fluorescences were read with the plate reader Ensight (Perkin Elmer, Waltham, MA, USA) with excitation wavelengths, respectively, 488 nm for DClF and 360 nm for Hoechst and emission wavelength 535 nm for DClF and 454 for Hoechst 33342. The intensity of DClF fluorescence was normalized on Hoechst fluorescence and is expressed in Arbitrary Units (AU).

HCT116 = assay: MTT assay, HCT116 cells
Experimental: Cells were seeded in a 96-well culture plastic plate (Sarsted, Milan, Italy), at 5 × 10^4 cells/well and, after 24 h, were exposed to increasing concentrations of the different compounds (from 1 nM to 500 nM) dissolved in RPMI 1640 medium. An MTT assay was performed according to […] al.. The absorbance at 570 nm was measured using a multi-well plate reader (Tecan, Männedorf, Switzerland), and data were analyzed by Prism GraphPad 8 software and expressed as IC50 nM.

Caco-2 = assay: MTT assay, Caco-2 cells; details: Homo sapiens, MTT after 24 h of treatment, means of four experiments
Experimental: (§1) The human colorectal adenocarcinoma (Caco-2), human colorectal adenocarcinoma (HT29), normal human intestinal (I407), human cervical cancer (HeLa), human breast cancer (MCF7), human bone osteosarcoma (U2OS), and human acute T-cell leukemia (Jurkat J6) cell lines were purchased from American Type Culture Collection (ATCC, Manassas, VA, USA). Cells were cultured in RPMI 1640 medium (Labtek Eurobio, Milan, Italy), supplemented with 10% FCS (Euroclone, Milano, Italy) and 2 mM L-glutamine (Sigma-Aldrich, Milano, Italy), at 37 °C and in a 5% CO2 atmosphere. The compounds were dissolved in DMSO in a 30–40 mM stock solution. In cell treatments, the final DMSO concentration never exceeded 0.1%.
(§2) Cells were seeded in a 96-well culture plastic plate (Sarsted, Milan, Italy), at 5 × 10^4 cells/well and, after 24 h, were exposed to increasing concentrations of the different compounds (from 1 nM to 500 nM) dissolved in RPMI 1640 medium. An MTT assay was performed according to Micheletti et al..
(§3) The absorbance at 570 nm was measured using a multi-well plate reader (Tecan, Männedorf, Switzerland), and data were analyzed by Prism GraphPad 8 software and expressed as IC50 nM.

MTT assay, Caco-2 cells = details: human, versus normal I407 cells, read-out: S.I. (Selective Index), Caco-2
Experimental: as §1, §2, §3

HT29 cells [2] = assay: Cell cycle analysis by flow cytometry (PI); details: 50 nM, 24 h
Experimental: HT29 cells were treated with compound 4 for 24 h and then detached with 0.11% trypsin/0.02% ethylenediaminetetraacetic acid (EDTA) (Sigma-Aldrich, St. Louis, MO, USA), washed in PBS, and centrifuged. Cells were stained and analyzed according to […] al..

CCCCCCCCC[C@H](CCCCCCCC(=O)O)O[Si](C)(C)C(C)(C)C [Compound 4, (R)-9-((tert-butyldimethylsilyl)oxy)octadecanoic acid]
change in ROS content (HT29 cells [1]): does not lead to a change | IC50 (HCT116; Homo sapiens, HCT-116, MTT after 24 h of treatment, means of four experiments): 21.49 ± 0.16 nM | S.I. (Selective Index), HCT116 (HCT116; versus normal I407 cells): 2.88 | IC50 (Caco-2): 23.39 ± 0.12 nM | selectivity ratio (MTT assay, Caco-2 cells): 2.65 | decrease in G2/M phase (HT29 cells [2]): 80.3 ± 6.1% | decrease in S phase (HT29 cells [2]): 66.4 ± 8.9% | increase in the G0/G1 phase (HT29 cells [2]): 41.8 ± 0.2%
